Inconclusive results and toxic doses are left out.
System: L1210 leukemia ip in BDF1 mice, survival T/C
Experiment: NCI In Vivo Anticancer Drug Screen. Data for tumor model L1210 Leukemia (intraperitoneal) in B6D2F1 (BDF1) mice
Conditions: endpoint: mean survival time, higher = longer survival
Outline: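 Antitumor effect is assessed in tumor-bearing animals. Survival in the compound arm is compared with a vehicle-dosed control arm and expressed as their quotient.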

With CC(C)(C)C(=C=C=O)C#N the T/C (dose: 100.0 mg/kg/injection, schedule: Q01DX001 (ip), vehicle: saline with Tween-80) was 87 % of control, the T/C (dose: 200.0 mg/kg/injection, schedule: Q01DX001 (ip), vehicle: saline with Tween-80) was 94 % of control and the T/C (dose: 400.0 mg/kg/injection, schedule: Q01DX001 (ip), vehicle: saline with Tween-80) was 87 % of control.
In the case of CCCCCCCCCCCCCCCCOc1ccc(F)cc1F, the T/C (dose: 100.0 mg/kg/injection, schedule: Q04DX002 (ip), vehicle: Klucel (hydroxypropylcellulose) (HPC)) is reported as 118 % of control, the T/C (dose: 200.0 mg/kg/injection, schedule: Q04DX002 (ip), vehicle: Klucel (hydroxypropylcellulose) (HPC)) is reported as 96 % of control and the T/C (dose: 400.0 mg/kg/injection, schedule: Q04DX002 (ip), vehicle: Klucel (hydroxypropylcellulose) (HPC)) is reported as 96 % of control.
With CC1CC(C)(C)N=C(CC(C)(O)c2ccccn2)O1 (configuration not stated) the T/C (dose: 100.0 mg/kg/injection, schedule: Q01DX001 (ip), vehicle: saline sonified) was 97 % of control, the T/C (dose: 200.0 mg/kg/injection, schedule: Q01DX001 (ip), vehicle: saline sonified) was 103 % of control and the T/C (dose: 400.0 mg/kg/injection, schedule: Q01DX001 (ip), vehicle: saline sonified) was 100 % of control.
For COc1cccc2c1CC/C(=C\c1cccnc1)C2=O, the T/C (dose: 100.0 mg/kg/injection, schedule: Q04DX003 (ip), vehicle: carboxymethylcellulose (CMC)) was 103 % of control, the T/C (dose: 200.0 mg/kg/injection, schedule: Q04DX003 (ip), vehicle: carboxymethylcellulose (CMC)) was 102 % of control and the T/C (dose: 400.0 mg/kg/injection, schedule: Q04DX003 (ip), vehicle: carboxymethylcellulose (CMC)) was 95 % of control.
With O=[N+]([O-])c1ccc(S(=O)CCCl)c([N+](=O)[O-])c1 (configuration not stated) the T/C (dose: 6.25 mg/kg/injection, schedule: Q04DX003 (ip), vehicle: saline) was 96 % of control, the T/C (dose: 12.5 mg/kg/injection, schedule: Q04DX003 (ip), vehicle: saline) was 97 % of control and the T/C (dose: 25.0 mg/kg/injection, schedule: Q04DX003 (ip), vehicle: saline with Tween-80) was 100 % of control. The T/C (dose: 25.0 mg/kg/injection, schedule: Q04DX003 (ip), vehicle: saline) was 97 % of control.
In the case of CC[n+]1cccc2cc(NC(=O)c3ccc(NC(=O)c4ccc(C(=O)Nc5ccc6c(ccc[n+]6CC)c5)cc4)cc3)ccc21, the T/C (dose: 0.5 mg/kg/injection, schedule: Q01DX Z (ip), vehicle: carboxymethylcellulose (CMC)) is reported as 94 % of control, the T/C (dose: 1.0 mg/kg/injection, schedule: Q01DX Z (ip), vehicle: carboxymethylcellulose (CMC)) is reported as 96 % of control and the T/C (dose: 2.5 mg/kg/injection, schedule: Q01DX Z (ip), vehicle: carboxymethylcellulose (CMC)) is reported as 120 % of control. The T/C (dose: 5.0 mg/kg/injection, schedule: Q01DX Z (ip), vehicle: carboxymethylcellulose (CMC)) was 156 % of control, the T/C (dose: 8.9 mg/kg/injection, schedule: Q01DX Z (ip), vehicle: carboxymethylcellulose (CMC)) was 154 % of control and the T/C (dose: 13.3 mg/kg/injection, schedule: Q01DX Z (ip), vehicle: carboxymethylcellulose (CMC)) was 164 % of control. For the same molecule, the T/C (dose: 20.0 mg/kg/injection, schedule: Q01DX Z (ip), vehicle: carboxymethylcellulose (CMC)) was 164 % of control and the T/C (dose: 30.0 mg/kg/injection, schedule: Q01DX Z (ip), vehicle: carboxymethylcellulose (CMC)) was 174 % of control.
O=C(O)C(O)C(O)C(O)C(O)CO.O=C(O)C(O)C(O)C(O)C(O)CO.O=C(O)C(O)C(O)C(O)C(O)CO.[Ga] (configuration not stated) was tested, and the T/C (dose: 50.0 mg/kg/injection, schedule: Q01DX001 (ip), vehicle: saline) was 101 % of control, the T/C (dose: 100.0 mg/kg/injection, schedule: Q01DX001 (ip), vehicle: saline) was 103 % of control and the T/C (dose: 200.0 mg/kg/injection, schedule: Q01DX001 (ip), vehicle: saline) was 112 % of control. The T/C (dose: 400.0 mg/kg/injection, schedule: Q01DX001 (ip), vehicle: saline) was 100 % of control.
CC1=NN(P(=O)(c2ccccc2)c2ccccc2)/C(=C\c2ccccc2)O1 was tested, and the T/C (dose: 100.0 mg/kg/injection, schedule: Q01DX001 (ip), vehicle: steriod suspending solution) was 90 % of control, the T/C (dose: 200.0 mg/kg/injection, schedule: Q01DX001 (ip), vehicle: steriod suspending solution) was 104 % of control and the T/C (dose: 400.0 mg/kg/injection, schedule: Q01DX001 (ip), vehicle: steriod suspending solution) was 90 % of control.
In the case of Cn1cnc([N+](=O)[O-])c1Cl, the T/C (dose: 50.0 mg/kg/injection, schedule: Q01DX009 (ip), vehicle: saline) is reported as 102 % of control, the T/C (dose: 100.0 mg/kg/injection, schedule: Q01DX009 (ip), vehicle: saline) is reported as 103 % of control and the T/C (dose: 100.0 mg/kg/injection, schedule: Q04DX003 (ip), vehicle: saline) is reported as 94 % of control. For the same molecule, the T/C (dose: 200.0 mg/kg/injection, schedule: Q01DX009 (ip), vehicle: saline) was 92 % of control and the T/C (dose: 200.0 mg/kg/injection, schedule: Q04DX003 (ip), vehicle: saline) was 102 % of control.
For Cc1c(Cl)cccc1NC(=O)c1ccccc1, the T/C (dose: 100.0 mg/kg/injection, schedule: Q01DX009 (ip), vehicle: Klucel (hydroxypropylcellulose) (HPC)) was 93 % of control, the T/C (dose: 100.0 mg/kg/injection, schedule: Q04DX003 (ip), vehicle: Klucel (hydroxypropylcellulose) (HPC)) was 91 % of control and the T/C (dose: 200.0 mg/kg/injection, schedule: Q01DX009 (ip), vehicle: Klucel (hydroxypropylcellulose) (HPC)) was 96 % of control. The T/C (dose: 200.0 mg/kg/injection, schedule: Q04DX003 (ip), vehicle: Klucel (hydroxypropylcellulose) (HPC)) was 106 % of control, the T/C (dose: 400.0 mg/kg/injection, schedule: Q01DX009 (ip), vehicle: Klucel (hydroxypropylcellulose) (HPC)) was 100 % of control and the T/C (dose: 400.0 mg/kg/injection, schedule: Q04DX003 (ip), vehicle: Klucel (hydroxypropylcellulose) (HPC)) was 98 % of control.

Source: PubChem BioAssay AID248 (DTP/NCI, 2004)
